Reference: US11090266B2, “Nanoliposomal c-MYC-siRNA inhibits in vivo tumor growth of cisplatin-resistant ovarian cancer” (priority 2014, dated 2021)

Tested on: A2780CP20 tumors
Assay: Therapeutic efficacy in A2780CP20 tumor-bearing nude mice
Assay type: in vivo
Settings: siRNA-DOPC 5 μg siRNA/injection, CIS 160 μg/injection, i.p. once a week for 4 weeks
Procedure: c-MYC was overexpressed in cells with low c-MYC levels (A2780) (FIG. 16A). The rate of cell proliferation of these cells were higher compared with empty vectors (FIG. 16B). The effect of nanoliposomal-c-MYC-siRNA was tested on target depletion, and therapy efficacy. Nude mice were injected intraperitoneally (i.p.) with A2780CP20 cells. A nude mice-bearing tumors were injected i.p. with nanoliposomal siRNAs. Seven days post-injection, mice were sacrificed and the tumors were dissected. As shown is FIG. 18A, the anti-tumor effects of nanoliposomal-c-MYC-siRNA as compared to C-siRNA were tested in tumor-bearing mice. […] All nanoliposomal-c-MYC-siRNAs and CIS treatments were injected i.p. once a week for 4 weeks. In vitro experiments were repeated in HEYA8 ovarian cancer cells which express high c-MYC levels (FIG. 19A-19D). Additional liposomal c-MYc-siRNA formulation was performed (FIG. 20A-20D) and FIGS. 22 and 23). […]
As shown in FIG. 16A-16B the directed effect effects of c-MYC overexpression in ovarian cancer cells. […] Cell viability was calculated. […]
DOPC-PEG-cholesterol-based nanoliposomes were used for in vivo c-MYC-siRNA delivery. First, we assessed whether the c-MYC silencing in vivo. […] Tumor weight and number of nodules were assessed in five treatment groups (10 mice each): (a) C-siRNA, (b) cisplatin (CIS) alone, (c) c-MYC-siRNA, (d) C-siRNA plus CIS, and (e) c-MYC-siRNA plus CIS. […]

N.N.[Cl][Pt][Cl] [CIS, cisplatin]
tumor weight / tumor growth: did not induce a significant effect on tumor growth
